Results taken from patent US8703953B2, “Aryl ether-base kinase inhibitors” (Bristol-Myers Squibb Company, priority 2012, dated 2014).
pIC50: −log10 of the molar value.

How the values were obtained:
AAK1 (full length human) = molecular target: T1, AAK1 (full length human) (Homo sapiens, UniProt Q2M2I8); assay: HEK281 Cell-Based Assay (HEK293F cells transfected with AAK1 and AP2M1; phospho-mu2 Western blot); details: 3 h
T1 construct: HA; expressed in transfected cells; host or cells: HEK293F
Procedure: HEK293F cells were cultured in media containing DMEM (Gibco, cat. #11965), 10% FBS (SAFC Biosciences, cat. #12103C), 1× GPS (glutamine, penicillin and streptomycin). On day one, cells were plated on a 10 cm dish so that they are ˜80% confluent at time of transfection. Roughly 12 million cells were in a 10 cm dish at time of transfection. On day two, each dish was transfected with 48 ug DNA and 144 μl Lipofectamine 2000 (Invitrogen, cat. #11668-019). The DNA was comprised of a mixture (per 10 cm dish) containing 3 ug AAK1/HA/pIRES (full length human, NCBI accession no. NP_055726.2), 45 μg Flag/AP2MI/pcDNA (full length human), and 1.5 ml OPTI-MEM. The Lipofectamine 2000 is made up of a mixture (per 10 cm dish) containing 144 μl Lipofectamine 2000 and 1.5 ml OPTI-MEM. Each mixture was transferred to individual 15 ml tubes and incubated at RT for 5 minutes, and then the two mixes were combined and incubated at RT for 20 minutes. Growth media was then aspirated from each 10 cm plate and replaced with 10 ml of DMEM+10% FBS (no GPS). Finally, 3 ml DNA/Lipofectamine mix was added to each 10 cm dish and mix gently followed by incubate of plate overnight at 37° C. and 5% CO2.
On day three, compounds were diluted in 100% DMSO at 1000× final concentration, followed by 3-fold serial dilutions for a total of 5 concentrations tested. Four compounds were tested per 10 cm dish. One ul of each compound dilution was then pipetted into a deep-well, 96-well plate, followed by addition of 500 μl DMEM+0.5% FBS into each well for a 2× final concentration of each compound. Cells were resuspended in a 10 cm dish by simple pipetting (HEK293 cells come off the plate that easy at this point) and then transferred to a 50 ml conical tube and pelleted by centrifugation at 1000 rpm for 5 min. Cell pellets were then resuspended in 2.75 ml DMEM+0.5% FBS per 10 cm dish and 100 μl of cell suspension transferred into each well of 96-well TC plate. Finally, 100 μl of 2× compound diluted in DMEM+0.5% FBS was then added into wells containing cell suspension for a 1× final concentration. Plates were then incubated at 37° C. and 5% CO2 for 3 hours followed by transferring of cell suspensions from each well into 12-tube PCR strips. The PCR strips were spun in a tip rack at 1000 rpm for 5 minutes to pellet cells and media was then removed by pipetting without disturbing the cell pellet.
To prepare for Western Blot analysis, cell pellets were resuspend in 40 ul 1× LDS-PAGE sample buffer (Invitrogen, cat. #NP0008)+2× Halt phophatase and protease inhibitor cocktail (Thermo Scientific, cat. #1861284), followed by sonicating each with microtip sonicator set at 5 for 8-10 seconds. Five ul of 10× NuPage Sample Reducing Agent (with […]) was to each sample followed by heat denaturing at 70C for 10 min on PCR machine. A total of 10 μl per sample was loaded into each lane of a 4-20% Tris-Glycine Criterion 26-well gel (Biorad, cat. #345-0034) for the phospho-mu2 blot and 10 μl per lane in a 4-12% Bis-Tris (+MES buffer) NuPAGE 26-well gel (Invitrogen, cat. #WG1403BX10) for the mu2 blot. For controls, 2 ng of phospho-mu2 or 20 ng mu2/Flag proteins were loaded in the last well of each gel. After SDS-PAGE, samples on each gel were transferred to PVDF membrane using an iBlot and membranes were blocked for one hour in TBST+5% milk, followed by wash 3× for 5-10 min with TBST. Criterion gels were probed with rabbit anti-phospho-mu2 (1:5000; a rabbit polyclonal antibody produced by New England Peptide and affinity purified at Lexicon) in TBST+5% BSA, whereas, NuPAGE gels were probed with mouse anti-Flag (1:500; Sigma, cat. #F1804) in TBST+5% milk, and these primary antibodies were incubated overnight at 4° C. on a rocker. […]

GST-Xa-hAAK1 = molecular target: T2, GST-Xa-hAAK1 (Homo sapiens, UniProt Q2M2I8); assay: AAK1 Kinase Assay (Caliper LabChip, fluoresceinated peptide substrate); assay type: biochemical; details: ATP 22 μM
T2 construct: made in house
T2 sequence (Q2M2I8 whole entry): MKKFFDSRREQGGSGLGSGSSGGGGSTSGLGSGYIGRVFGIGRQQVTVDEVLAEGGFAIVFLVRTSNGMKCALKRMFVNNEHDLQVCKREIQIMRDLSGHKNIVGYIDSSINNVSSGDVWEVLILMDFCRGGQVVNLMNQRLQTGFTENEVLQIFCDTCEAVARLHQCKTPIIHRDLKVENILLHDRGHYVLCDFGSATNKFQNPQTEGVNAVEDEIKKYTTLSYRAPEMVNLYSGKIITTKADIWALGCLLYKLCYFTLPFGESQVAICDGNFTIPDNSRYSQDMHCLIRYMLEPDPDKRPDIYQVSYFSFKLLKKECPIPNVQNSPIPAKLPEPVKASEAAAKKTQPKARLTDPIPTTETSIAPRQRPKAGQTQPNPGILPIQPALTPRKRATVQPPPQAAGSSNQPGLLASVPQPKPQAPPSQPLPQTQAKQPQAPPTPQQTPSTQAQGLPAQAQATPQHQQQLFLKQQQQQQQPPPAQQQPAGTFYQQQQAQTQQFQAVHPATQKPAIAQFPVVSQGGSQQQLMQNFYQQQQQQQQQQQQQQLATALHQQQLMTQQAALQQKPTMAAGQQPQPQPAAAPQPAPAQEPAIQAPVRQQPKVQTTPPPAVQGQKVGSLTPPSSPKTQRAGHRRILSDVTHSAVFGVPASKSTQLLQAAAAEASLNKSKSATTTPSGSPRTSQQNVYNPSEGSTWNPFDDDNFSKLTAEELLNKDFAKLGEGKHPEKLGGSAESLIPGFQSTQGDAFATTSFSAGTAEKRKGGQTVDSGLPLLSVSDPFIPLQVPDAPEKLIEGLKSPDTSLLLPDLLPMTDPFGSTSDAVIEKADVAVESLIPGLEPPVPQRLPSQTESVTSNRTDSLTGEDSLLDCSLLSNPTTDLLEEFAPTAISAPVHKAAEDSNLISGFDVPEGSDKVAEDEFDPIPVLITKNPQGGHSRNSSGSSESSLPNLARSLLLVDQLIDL
Procedure: The assays were performed in U-bottom 384-well plates. The final assay volume was 30 μl prepared from 15 μl additions of enzyme and substrates (fluoresceinated peptide (5-FAM)-Aha-[…]-NH2 and ATP) and test compounds in assay buffer (10 mM Tris-HCL pH 7.4, 10 mM MgCl2, 0.01% Tween-20 and 1.0 mM DTT). The reactions were initiated by the combination of bacterially expressed, GST-Xa-hAAK1 with substrates and test compounds. The reactions were incubated at room temperature for 3 hours and terminated by adding 60 μl of 35 mM EDTA buffer to each sample. The reactions were analyzed on the Caliper LabChip 3000 (Caliper, Hopkinton, Mass.) by electrophoretic separation of the fluorescent substrate and phosphorylated product. […] The final concentration of reagents in the assays are ATP, 22 μM; (5-FAM)-Aha-[…]-NH2, 1.5 μM; GST-Xa-hAAK1, 3.5 nM; and DMSO, 1.6%. Dose response curves were generated to determine the concentration required inhibiting 50% of kinase activity (IC50). Compounds were dissolved at 10 mM in dimethylsulfoxide (DMSO) and evaluated at eleven concentrations. IC50 values were derived by non-linear regression analysis.

T1 sequence (Q2M2I8 whole entry): as above

Structure (SMILES) | pIC50 (AAK1 (full length human); listed as IC50 ranges) | pIC50 (GST-Xa-hAAK1; listed as IC50 ranges) | pIC50 (AAK1 (full length human); numeric values) | pIC50 (GST-Xa-hAAK1; numeric values)
CC(C)C[C@@H](N)COc1ccc2c(c1)OC(C)c1cnccc1-2 (single isomer, unassigned) [Example 7a] |  |  | < 6.52 | 7.09
CC(=O)Nc1nccc2c1COc1cc(OC[C@@H](N)CC(C)C)ccc1-2 [Example 12, (S)-N-(8-(2-amino-4-methylpentyloxy)-5H-chromeno[3,4-c]pyridin-4-yl)acetamide] | 7.00 to 8.00 | 7.00 to 8.00 |  | 
CC1Oc2cc(OC[C@@H](N)CC3CCCC3)ccc2-c2ccncc21 (mixture of isomers) [Example 24, (2S)-1-cyclopentyl-3-(5-methyl-5H-chromeno[3,4-c]pyridin-8-yloxy)propan-2-amine] | 7.00 to 8.00 | 7.00 to 8.00 |  | 
CC(C)C[C@H](N)COc1ccc2c(c1)OC(C)c1cnccc1-2 (single isomer, unassigned) [Example 6a] |  |  | 7.60 | 7.57
CCC1Oc2cc(OC[C@@H](N)CC(C)C)ccc2-c2ccncc21 (mixture of isomers) [Example 10, (2S)-1-(5-ethyl-5H-chromeno[3,4-c]pyridin-8-yloxy)-4-methylpentan-2-amine] | 7.00 to 8.00 | 7.00 to 8.00 |  | 
CC(=O)Nc1cc2c(cn1)COc1cc(OC[C@@H](N)CC(C)C)c(Cl)cc1-2 [Example 32, (S)-N-(8-((2-amino-4-methylpentyl)oxy)-9-chloro-5H-chromeno[3,4-c]pyridin-2-yl)acetamide] |  |  | < 7.00 | 7.18
CC(C)C[C@H](N)COc1ccc2c(c1)OC(C)c1cnccc1-2 (single isomer, unassigned) [Example 6b] |  |  | 8.37 | 8.04
NC(CCC(F)(F)F)COc1ccc2c(c1)OCc1cnccc1-2 (racemic) [Example 17, 1-(5H-chromeno[3,4-c]pyridin-8-yloxy)-5,5,5-trifluoropentan-2-amine] | 7.00 to 8.00 | 7.00 to 8.00 |  | 
CC(C)C[C@H](N)COc1ccc2c(c1)oc(=O)c1cnccc12 [Example 11, (S)-8-(2-amino-4-methylpentyloxy)-5H-chromeno[3,4-c]pyridin-5-one] |  |  | 7.42 | 7.66
CC(C)C[C@H](N)COc1cc2c(cc1Br)-c1ccncc1C(C(F)(F)F)O2 (mixture of isomers) [Example 28, (2S)-1-((9-bromo-5-(trifluoromethyl)-5H-chromeno[3,4-c]pyridin-8-yl)oxy)-4-methylpentan-2-amine] | 8.00 to 9.00 | 8.00 to 9.00 |  | 
CC(C)C[C@H](N)COc1ccc2c(c1)OC(C1CC1)c1cnccc1-2 (single isomer, unassigned) [Example 8b] | 7.00 to 8.00 | 7.00 to 8.00 |  | 
CC(C)C[C@H](N)COc1ccc2c(c1)OCc1cncc(F)c1-2 [Example 16, (S)-1-((1-fluoro-5H-chromeno[3,4-c]pyridin-8-yl)oxy)-4-methylpentan-2-amine] | 8.00 to 9.00 | 8.00 to 9.00 |  | 
CC(C)C[C@H](N)COc1cc2c(cc1Br)-c1ccncc1CO2 [Example 14, (S)-1-(9-bromo-5H-chromeno[3,4-c]pyridin-8-yloxy)-4-methylpentan-2-amine] | 8.00 to 9.00 | 8.00 to 9.00 |  | 
CC(C)C[C@@H](N)COc1ccc2c(c1)OC(C1CC1)c1cnccc1-2 (single isomer, unassigned) [Example 9a] |  | 6.00 to 7.00 | < 6.52 | 

More lines, now with the values ahead:

pIC50 (AAK1 (full length human); listed as IC50 ranges) | pIC50 (GST-Xa-hAAK1; listed as IC50 ranges) | pIC50 (AAK1 (full length human); numeric values) | pIC50 (GST-Xa-hAAK1; numeric values) | Structure (SMILES)
8.00 to 9.00 | 8.00 to 9.00 |  |  | COC(=O)Nc1cc2c(cn1)COc1cc(OC[C@@H](N)CC(C)C)ccc1-2 [Example 43, (S)-methyl 8-(2-amino-4-methylpentyloxy)-5H-chromeno[3,4-c]pyridin-2-ylcarbamate]
> 9.00 | 8.00 to 9.00 |  |  | CC(C)C[C@H](N)COc1cc2c(cc1Br)-c1ccncc1C(C)O2 (mixture of isomers) [Example 21, (2S)-1-(9-bromo-5-methyl-5H-chromeno[3,4-c]pyridin-8-yloxy)-4-methylpentan-2-amine]
8.00 to 9.00 | > 9.00 |  |  | CC(=O)Nc1cc2c(cn1)COc1c-2ccc(OC[C@@H](N)CC(C)C)c1C(F)F [Example 38, (S)-N-(8-(2-amino-4-methylpentyloxy)-7-(difluoromethyl)-5H-chromeno[3,4-c]pyridin-2-yl)acetamide]
7.00 to 8.00 | 8.00 to 9.00 |  |  | CC(=O)Nc1cc2c(cn1)COc1cc(OC[C@@H](N)CC(C)C)ccc1-2 [Example 18, (S)-N-(8-(2-amino-4-methylpentyloxy)-5H-chromeno[3,4-c]pyridin-2-yl)acetamide]
8.00 to 9.00 | 8.00 to 9.00 |  |  | CC(C)C[C@H](N)COc1ccc2c(c1)OC(C)c1c-2ccnc1N (stereo partly drawn) [Example 15, 8-(((S)-2-amino-4-methylpentyl)oxy)-5-methyl-5H-chromeno[3,4-c]pyridin-4-amine]
> 9.00 | 8.00 to 9.00 |  |  | CC(C)C[C@H](N)COc1cc2c(cc1C#N)-c1ccncc1C(C)O2 (mixture of isomers) [Example 22, 8-((S)-2-amino-4-methylpentyloxy)-5-methyl-5H-chromeno[3,4-c]pyridine-9-carbonitrile]
8.00 to 9.00 | 8.00 to 9.00 |  |  | CC(C)C[C@H](N)COc1ccc2c(c1)OCc1c-2ccnc1N [Example 13, (S)-8-((2-amino-4-methylpentyl)oxy)-5H-chromeno[3,4-c]pyridin-4-amine]
8.00 to 9.00 | 8.00 to 9.00 |  |  | CC(C)C[C@H](N)COc1cc2c(cc1Cl)-c1ccncc1C(C(F)(F)F)O2 (mixture of isomers) [Example 27, (2S)-1-((9-chloro-5-(trifluoromethyl)-5H-chromeno[3,4-c]pyridin-8-yl)oxy)-4-methylpentan-2-amine]
> 9.00 | > 9.00 |  |  | CC(=O)Nc1cc2c(cn1)COc1c-2ccc(OC[C@@H](N)CC(C)C)c1C [Example 35, (S)-N-(8-((2-amino-4-methylpentyl)oxy)-7-methyl-5H-chromeno[3,4-c]pyridin-2-yl)acetamide]
